One may read the inhibition as the drop in the measured response relative to a control, in per cent.

pIC50: −log10 of the molar value.

IC50 and inhibition data for 13 compounds are collected here from US20210395239A1 (Hoffmann-La Roche Inc., priority 2018, published 2021).

The target in one data set is T1, human TLR7 (Homo sapiens, UniProt Q9NYK1).
T1 construct: host or cells: HEK293 (HEK-Blue hTLR7)
T1 sequence (Q9NYK1 27-1049): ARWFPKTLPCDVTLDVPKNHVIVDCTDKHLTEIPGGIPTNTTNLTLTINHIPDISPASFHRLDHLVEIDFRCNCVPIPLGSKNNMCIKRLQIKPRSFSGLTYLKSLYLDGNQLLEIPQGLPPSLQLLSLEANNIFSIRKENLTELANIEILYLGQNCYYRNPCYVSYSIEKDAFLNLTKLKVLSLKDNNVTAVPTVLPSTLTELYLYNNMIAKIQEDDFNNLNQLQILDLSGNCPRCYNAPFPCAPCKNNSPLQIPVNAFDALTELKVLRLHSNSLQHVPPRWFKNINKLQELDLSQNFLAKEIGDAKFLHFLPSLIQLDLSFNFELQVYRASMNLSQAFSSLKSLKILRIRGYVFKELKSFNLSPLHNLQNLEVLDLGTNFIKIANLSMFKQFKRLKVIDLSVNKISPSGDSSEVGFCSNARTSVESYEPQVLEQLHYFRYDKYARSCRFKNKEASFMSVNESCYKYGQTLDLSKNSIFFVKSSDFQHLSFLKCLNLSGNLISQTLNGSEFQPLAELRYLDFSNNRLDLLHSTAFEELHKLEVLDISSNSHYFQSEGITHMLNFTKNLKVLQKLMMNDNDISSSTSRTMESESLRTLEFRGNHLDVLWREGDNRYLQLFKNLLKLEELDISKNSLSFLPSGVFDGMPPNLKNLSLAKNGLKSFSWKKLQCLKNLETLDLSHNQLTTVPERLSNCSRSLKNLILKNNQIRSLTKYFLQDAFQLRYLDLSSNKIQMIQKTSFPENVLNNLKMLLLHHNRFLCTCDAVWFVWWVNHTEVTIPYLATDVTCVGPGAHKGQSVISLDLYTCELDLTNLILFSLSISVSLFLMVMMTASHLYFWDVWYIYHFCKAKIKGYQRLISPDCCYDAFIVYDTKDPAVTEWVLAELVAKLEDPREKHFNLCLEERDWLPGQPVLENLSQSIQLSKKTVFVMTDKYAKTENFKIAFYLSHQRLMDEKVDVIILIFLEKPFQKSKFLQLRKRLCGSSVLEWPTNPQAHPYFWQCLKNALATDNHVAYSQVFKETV
The experiment in a line: HEK293-Blue-hTLR-7 cells assay (SEAP reporter, R848 stimulation). It is filed as cell-based. Particulars: HEK293-Blue-hTLR7 cells, R848, 20 hrs; read-out: HEK/hTLR7 IC50. The method in brief:
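HEK293-Blue-hTLR7 cells (NF-κB/AP-1-driven SEAP reporter) were stimulated with R848 alongside serially diluted compound at 1% final DMSO for 20 h at 37 °C. Supernatant SEAP was then developed with QUANTI-Blue for 2 h at 37 °C and absorbance read at 620–655 nm; antagonism is measured as reduced reporter signal.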

The target of the next data set is T2, CYP3A4 (Homo sapiens, UniProt P08684).
T2 construct: tissue BD-Gentest 452117; host or cells: human liver microsomes
T2 sequence (P08684 whole entry): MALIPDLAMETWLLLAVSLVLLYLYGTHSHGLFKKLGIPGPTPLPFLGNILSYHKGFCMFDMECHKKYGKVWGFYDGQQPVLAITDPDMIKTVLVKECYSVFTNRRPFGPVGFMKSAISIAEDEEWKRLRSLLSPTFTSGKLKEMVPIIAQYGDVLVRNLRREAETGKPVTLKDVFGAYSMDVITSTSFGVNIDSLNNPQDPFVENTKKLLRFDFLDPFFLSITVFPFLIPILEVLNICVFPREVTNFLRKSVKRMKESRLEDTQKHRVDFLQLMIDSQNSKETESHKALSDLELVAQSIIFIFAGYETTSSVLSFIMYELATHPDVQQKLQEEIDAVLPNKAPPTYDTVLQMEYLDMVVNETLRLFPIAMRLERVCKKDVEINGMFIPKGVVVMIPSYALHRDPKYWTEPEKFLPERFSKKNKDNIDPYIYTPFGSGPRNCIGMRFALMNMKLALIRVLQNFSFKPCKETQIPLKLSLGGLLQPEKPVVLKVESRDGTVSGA
The experiment in a line: CYP inhibition assay in human liver microsome, CYP3A4. It is filed as in vitro ADME. Particulars: human, human liver microsomes, probe midazolam 5 μM, substrate midazolam 5 μM, third value of 2C9/2D6/3A4. As to the method: (§1) This is a high throughput screening assay used for assessment of reversible inhibition of CYP2C9, CYP2D6, and CYP3A4 activity of test compounds in human liver microsome (HLM) in early discovery stage.
(§2) 10 mM DMSO stock solutions of test compounds were diluted in DMSO to generate 2 mM intermediate stock solution. 250 nL, of intermediate stock solution were transferred in duplicate into 3 separate 384 well microtitre plates (assay-ready plates). A mixture of HLM and each substrate was made up. 45 μL of HLM substrate mix was then transferred to each well of an assay ready plate and mixed. The negative (solvent) and positive controls (standard inhibitor for each CYP) were included in each assay ready plate. The assay ready plate was warmed to 37° C. in an incubator over 10 minutes. 5 μL pre-warmed NADPH regenerating system was added to each incubation well to start the reaction. Final incubation volume was 50 μL. The assay plate then was placed back in the 37° C. incubator. After incubation (10 minutes for CYP2D6) for 5 minutes, incubates were quenched by addition of 50 μL 100% acetonitrile containing internal standards (400 ng/mL 13C6-4′-OH-Diclofenac, 20 ng/mL D3-Dextrorphan and 20 ng/mL D4-1′OH-Midazolam). The supernatants were collected for RapidFire/MS/MS analysis.
(§3) RapidFire online solid phase extraction/sample injection system (Agilent) coupled with API4000 triple quadrupole mass spectrometer (AB Sciex) were used for sample analysis. The mobile phase composed of acetonitrile and water supplemented with 0.1% formic acid. A C4 solid phase extraction cartridge is used for sample separation. MS detection is achieved in positive ion MRM mode.
(§4) Peak areas for substrate, metabolite and internal standard are determined using the RapidFire integrator software (version 3.6.12009.12296). Peak area ratios (PAR) of metabolite and internal standard (stable-labelled metabolite) are then calculated. The measurement window for each experiment is then defined:
(§5) PAR (0% activity)=average PAR for all incubations containing concentrated inhibitor; Par (100% activity)=average PAR for all incubations containing no inhibitor (DMSO controls); % Activity (test inhibitor)=[PAR (test inhibitor)−PAR (0% activity)]/[PAR (100% activity)−PAR (0% activity)]; % Inhibition (test inhibitor)=100-% Activity (test inhibitor).

The next data set addresses T3, CYP2D6 (Homo sapiens, UniProt P10635).
T3 construct: tissue BD-Gentest 452117; host or cells: human liver microsomes
The experiment in a line: CYP inhibition assay in human liver microsome, CYP2D6. It is filed as in vitro ADME. Particulars: human, human liver microsomes, probe dextromethorphan 5 μM, substrate dextromethorphan 5 μM, second value of 2C9/2D6/3A4. The protocol:
as §1, §2, §3, §4, §5

T3 sequence (P10635 whole entry): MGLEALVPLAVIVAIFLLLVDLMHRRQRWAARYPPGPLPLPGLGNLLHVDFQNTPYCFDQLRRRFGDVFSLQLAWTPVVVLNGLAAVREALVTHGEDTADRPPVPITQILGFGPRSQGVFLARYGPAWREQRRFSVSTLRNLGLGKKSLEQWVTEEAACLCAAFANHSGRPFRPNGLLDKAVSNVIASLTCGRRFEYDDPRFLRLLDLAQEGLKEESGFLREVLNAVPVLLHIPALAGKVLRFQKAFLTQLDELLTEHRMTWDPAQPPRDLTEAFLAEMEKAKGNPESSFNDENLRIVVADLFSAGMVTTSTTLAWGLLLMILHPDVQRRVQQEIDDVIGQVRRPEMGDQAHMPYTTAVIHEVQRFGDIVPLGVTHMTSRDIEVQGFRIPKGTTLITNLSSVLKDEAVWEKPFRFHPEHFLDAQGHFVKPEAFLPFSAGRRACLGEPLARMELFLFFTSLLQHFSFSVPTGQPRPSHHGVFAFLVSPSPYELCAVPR

As for `C[C@@H]1CN(c2ccc(C#N)n3ncc(F)c23)C[C@H](CN2CC(c3ccc(N4CC(C)(N)C4)nc3)C2)O1` [Example 158, 4-[(2S,6R)-2-[[3-[6-(3-amino-3-methyl-azetidin-1-yl)-3-pyridyl]azetidin-1-yl]methyl]-6-methyl-morpholin-4-yl]-3-fluoro-pyrazolo[1,5-a]pyridine-7-carbonitrile], at human TLR7, the pIC50 was 8.52. For the same compound, the inhibition at 5 min, 10 µM at CYP3A4 was -0.5%. In addition, the inhibition at 10 min, 10 µM on CYP2D6 is -7.5%.
Turning to `[2H]c1ccc2c(N3C[C@H](CN4CCN(c5ccc(N6C[C@@H](N)[C@H](OC)C6)nc5)CC4)O[C@H](C)C3)ccc(C#N)c2n1` [Example 143, 5-[(2S,6R)-2-[[4-[6-[(3R,4R)-3-amino-4-methoxy-pyrrolidin-1-yl]-3-pyridyl]piperazin-1-yl]methyl]-6-methyl-morpholin-4-yl]-2-deuterio-quinoline-8-carbonitrile], the pIC50 at human TLR7 was 7.68. The inhibition at 5 min, 10 µM against CYP3A4 stood at 18%. For the same compound, the inhibition at 10 min, 10 µM against CYP2D6 is -30%.
The matching figures for `C[C@@H]1CN(c2ccc(C#N)n3nccc23)C[C@H](CN2CC(c3ccc(N4CC(C)(N)C4)cc3)C2)O1` [Example 163, 4-[(2S,6R)-2-[[3-[4-(3-amino-3-methyl-azetidin-1-yl)phenyl]azetidin-1-yl]methyl]-6-methyl-morpholin-4-yl]pyrazolo[1,5-a]pyridine-7-carbonitrile]: 7.66, 0.5% and 6.5%.
The matching figures for `C[C@@H]1CN(c2ccc(C#N)n3ncc(F)c23)C[C@H](CN2CC(c3ccc(N4C[C@@H]5C[C@H]4CN5)nc3)C2)O1` [Example 165, 4-[(2S,6R)-2-[[3-[6-[(1S,4S)-2,5-diazabicyclo[2.2.1]heptan-2-yl]-3-pyridyl]azetidin-1-yl]methyl]-6-methyl-morpholin-4-yl]-3-fluoro-pyrazolo[1,5-a]pyridine-7-carbonitrile]: 8.15, 9% and 17.5%.
As for `CO[C@@H]1CN(c2ccc(C3CN(C[C@H]4CN(c5ccc(C#N)n6ncc(F)c56)C[C@@H](C)O4)C3)cn2)C[C@H]1N` [Example 164, 4-[(2S,6R)-2-[[3-[6-[(3R,4R)-3-amino-4-methoxy-pyrrolidin-1-yl]-3-pyridyl]azetidin-1-yl]methyl]-6-methyl-morpholin-4-yl]-3-fluoro-pyrazolo[1,5-a]pyridine-7-carbonitrile], at human TLR7, the pIC50 was 8.00. Moreover, the inhibition at 5 min, 10 µM at CYP3A4 was 30.5%. At CYP2D6, the inhibition at 10 min, 10 µM was 26%.
As to `Cc1ccc(N2C[C@H](CN3CCN(c4ccnc(N5CCNCC5)n4)CC3)O[C@H](C)C2)c2nccnc12` [Example 117, (2R,6S)-2-methyl-4-(8-methylquinoxalin-5-yl)-6-[[4-(2-piperazin-1-ylpyrimidin-4-yl)piperazin-1-yl]methyl]morpholine], the pIC50 at human TLR7 is 7.89. Besides, the inhibition at 5 min, 10 µM against CYP3A4 amounted to 10%. On CYP2D6, the inhibition at 10 min, 10 µM worked out at 4.5%.
The matching figures for `Cc1ccc(N2C[C@H](CN3CCN(c4nccc(N5CCNCC5)n4)CC3)O[C@H](C)C2)c2nccnc12` [Example 116, (2R,6S)-2-methyl-4-(8-methylquinoxalin-5-yl)-6-[[4-(4-piperazin-1-ylpyrimidin-2-yl)piperazin-1-yl]methyl]morpholine]: 7.68, 8% and 10%.
The matching figures for `C[C@@H]1CN(c2ccc(C#N)c3ncccc23)C[C@H](CN2CC(c3cccc(N4CCNCC4)c3)C2)O1` [Example 4, 5-[(2R,6S)-2-methyl-6-[[3-(3-piperazin-1-ylphenyl)azetidin-1-yl]methyl]morpholin-4-yl]quinoline-8-carbonitrile]: 7.80, 0.5% and 11%.
The like results for `C[C@@H]1CN(c2ccc(C#N)n3ncc(F)c23)C[C@H](CN2CC(c3ccc(N4CC(C)(N)C4)cc3)C2)O1` [Example 160, 4-[(2S,6R)-2-[[3-[4-(3-amino-3-methyl-azetidin-1-yl)phenyl]azetidin-1-yl]methyl]-6-methyl-morpholin-4-yl]-3-fluoro-pyrazolo[1,5-a]pyridine-7-carbonitrile] were, in that order, 7.96, 4.5% and 17%.
In the case of `C[C@@H]1CN(c2ccc(C#N)c3ncccc23)C[C@H](CN2CCN(c3ccnc(N4C[C@H](N)[C@@H](F)C4)n3)CC2)O1` [Example 110, 5-[(2S,6R)-2-[[4-[2-[(3S,4S)-3-amino-4-fluoro-pyrrolidin-1-yl]pyrimidin-4-yl]piperazin-1-yl]methyl]-6-methyl-morpholin-4-yl]quinoline-8-carbonitrile], the pIC50 at human TLR7 was 7.85. The inhibition at 5 min, 10 µM against CYP3A4 was found to be 44%. At CYP2D6, the inhibition at 10 min, 10 µM came out at 13.5%.
The matching figures for `CO[C@@H]1CN(c2ccc(N3CCN(C[C@H]4CN(c5ccc(C#N)n6ncc(F)c56)C[C@@H](C)O4)CC3)cn2)C[C@H]1N` [Example 166, 4-[(2S,6R)-2-[[4-[6-[(3R,4R)-3-amino-4-methoxy-pyrrolidin-1-yl]-3-pyridyl]piperazin-1-yl]methyl]-6-methyl-morpholin-4-yl]-3-fluoro-pyrazolo[1,5-a]pyridine-7-carbonitrile]: 7.68, 35.5% and 20%.
Turning to `[2H]c1nc2c(C#N)ccc(N3C[C@H](CN4CCN(c5nc(C)cc(N6CC(N)C6)n5)CC4)O[C@H](C)C3)c2nc1[2H]` [Example 124, 8-[(2S,6R)-2-[[4-[4-(3-aminoazetidin-1-yl)-6-methyl-pyrimidin-2-yl]piperazin-1-yl]methyl]-6-methyl-morpholin-4-yl]-2,3-dideuterio-quinoxaline-5-carbonitrile], the pIC50 at human TLR7 is 8.30. The inhibition at 5 min, 10 µM on CYP3A4 was 16%. For the same compound, on CYP2D6, the inhibition at 10 min, 10 µM worked out at 9.5%.
The matching figures for `CO[C@H]1CN(c2cc(C)nc(N3CCN(C[C@H]4CN(c5ccc(C#N)c6nccnc56)C[C@@H](C)O4)CC3)n2)C[C@@H]1N` [Example 104, 8-[(2S,6R)-2-[[4-[4-[(3S,4S)-3-amino-4-methoxy-pyrrolidin-1-yl]-6-methyl-pyrimidin-2-yl]piperazin-1-yl]methyl]-6-methyl-morpholin-4-yl]quinoxaline-5-carbonitrile]: 7.66, -12% and 15%.
